Read-outs that look alike come from different tables or passages of the source. One block for each molecule: values may come before it.
Key:
[1] = target: T1, monkey NPC1L1 (Macaca mulatta, UniProt A0MJA5); assay: Fluorescence NPC1L1 binding assay, HEK-293 cells, BODIPY-labeled compound 1; parameters: species or system rhesus monkey; settings: for Ki / Ki Monkey NPC1L1: Table 3, Monkey; for Ki: read-out: Ki Monkey NPC1L1
Protocol: (§1) Cell Culture and Membrane Preparation. Each plasmid pCR3.1 harboring NPC1L1 was prepared using standard molecular biology protocols. Stable cell lines expressing human, rhesus monkey, mouse, rat, hamster, canine or rabbit NPC1L1 were generated using Lipofectamine 2000 transfection reagent in HEK-293 cells according to the manufacturer's protocol. Cells were maintained in DMEM supplemented with 10% FBS, 100 U/ml pen/strep, and 500 μg/ml geneticin at 37° C., 5% CO2. All cell culture reagents were obtained from Invitrogen Life Technologies, (Carlsbad, Calif.). Cell membranes were prepared by lysing cells in 5 mM HEPES with protease inhibitors (Complete™ Protease Inhibitor Cocktail Tablets; Roche Diagnostics Corp., Indianapolis Ind.) for 15 min at 4° C. A membrane pellet was obtained by centrifuging the cell lysates at 12,000×g for 25 min. The membranes were resuspended in 5 mM HEPES with protease inhibitors and triturated with a 21G needle.
(§2) Fluorescence. Cells were plated into 384-well black/clear plates (BD Biosciences, Bedford Mass.) for binding experiments the following day. The media was aspirated. […] Media (20 μl) containing the indicated concentration of compound was then added to the wells. […] The binding reaction was allowed to proceed for 4 hours at 37° C. Subsequently the media was aspirated and the cells washed once with PBS.

[2] = target: canine NPC1L1 (Canis lupus familiaris, UniProt A0MJA4); assay: as above; settings: for Ki / Ki Dog NPC1L1: Table 3, Dog; for Ki: read-out: Ki Dog NPC1L1
Protocol: as §1, §2

[3] = target: hamster NPC1L1 (Mesocricetus auratus, UniProt A0MJA8); assay: as above; settings: for Ki / Ki Hamster NPC1L1: Table 3, Hamster; for Ki: read-out: Ki Hamster NPC1L1
Protocol: as §1, §2

[4] = target: T2, human NPC1L1 (Homo sapiens, UniProt Q9UHC9, T1073A); assay: as above; settings: for Ki / Ki Human NPC1L1: Table 3, Human; for Ki: read-out: Ki Human NPC1L1
T2 construct: expressed in transfected cells
T2 sequence (Q9UHC9 22-1332 isoform Q9UHC9-2 T1046A): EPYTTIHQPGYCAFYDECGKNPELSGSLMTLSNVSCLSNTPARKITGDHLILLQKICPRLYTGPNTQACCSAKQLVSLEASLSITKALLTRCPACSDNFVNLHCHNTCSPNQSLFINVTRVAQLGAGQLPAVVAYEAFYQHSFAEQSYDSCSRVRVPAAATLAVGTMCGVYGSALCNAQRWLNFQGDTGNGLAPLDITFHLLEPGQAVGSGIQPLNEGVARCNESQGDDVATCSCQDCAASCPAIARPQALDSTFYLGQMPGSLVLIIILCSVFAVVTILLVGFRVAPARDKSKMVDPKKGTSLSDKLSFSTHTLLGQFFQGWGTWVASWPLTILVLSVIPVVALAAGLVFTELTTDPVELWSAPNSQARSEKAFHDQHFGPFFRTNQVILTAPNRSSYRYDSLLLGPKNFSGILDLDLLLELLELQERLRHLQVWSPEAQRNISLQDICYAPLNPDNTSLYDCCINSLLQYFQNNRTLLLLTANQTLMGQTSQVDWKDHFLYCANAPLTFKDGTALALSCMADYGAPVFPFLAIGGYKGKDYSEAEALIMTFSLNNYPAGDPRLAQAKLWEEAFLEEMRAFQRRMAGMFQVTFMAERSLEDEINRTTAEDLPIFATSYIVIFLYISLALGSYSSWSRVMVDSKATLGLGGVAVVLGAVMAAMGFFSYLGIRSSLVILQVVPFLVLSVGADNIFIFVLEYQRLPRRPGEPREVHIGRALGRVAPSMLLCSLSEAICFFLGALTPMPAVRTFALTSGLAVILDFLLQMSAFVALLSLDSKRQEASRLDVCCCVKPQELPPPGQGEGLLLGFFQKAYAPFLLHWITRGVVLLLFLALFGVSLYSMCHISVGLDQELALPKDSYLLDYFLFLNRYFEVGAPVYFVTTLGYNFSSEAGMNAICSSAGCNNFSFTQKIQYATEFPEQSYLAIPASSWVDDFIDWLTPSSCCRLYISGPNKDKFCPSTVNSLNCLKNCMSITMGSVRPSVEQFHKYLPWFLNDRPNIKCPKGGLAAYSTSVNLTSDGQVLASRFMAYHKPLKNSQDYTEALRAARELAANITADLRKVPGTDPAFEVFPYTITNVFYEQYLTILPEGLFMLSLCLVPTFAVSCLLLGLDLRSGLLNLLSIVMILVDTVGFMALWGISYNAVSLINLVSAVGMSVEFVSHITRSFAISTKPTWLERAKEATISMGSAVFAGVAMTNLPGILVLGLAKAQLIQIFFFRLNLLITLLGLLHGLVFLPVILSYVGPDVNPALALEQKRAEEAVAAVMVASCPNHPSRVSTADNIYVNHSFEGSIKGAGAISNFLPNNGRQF
Protocol: as §1, §2

[5] = target: rabbit NPC1L1 (Oryctolagus cuniculus, UniProt A0MJA7); assay: as above; settings: for Ki / Ki Rabbit NPC1L1: Table 3, Rabbit; for Ki: read-out: Ki Rabbit NPC1L1
Protocol: as §1, §2

[6] = target: T3, rat NPC1L1 (Rattus norvegicus, UniProt Q6T3U3, A349V/E317P/G318E/K324N/L297S); assay: as above; settings: for Ki / Ki Rat NPC1L1: Table 3, Rat; for Ki: read-out: Ki Rat NPC1L1
T3 construct: expressed in transfected cells
Protocol: as §1, §2

[7] = target: T4, mouse NPC1L1 (Mus musculus, UniProt Q6T3U4, N476K); assay: Fluorescence NPC1L1 binding assay, HEK-293 cells, fluorescent compound 2 as ligand; settings: for Kd: saturation binding, mouse NPC1L1; for Ki / Ki Mouse NPC1L1: Table 3, Mouse; for Ki: read-out: Ki Mouse NPC1L1
T4 construct: expressed in transfected cells
Protocol: as §1, §2
In an effort to show binding to mouse NPC1L1, several related ezetimibe analogs were examined as possible alternatives to fluorescently-labeled (BODIPY) ezetimibe glucuronide (compound 1) in the binding assay. Compound 2, which is a fluorescently labeled synthetic precursor for fluorescently-labeled (BODIPY) ezetimibe glucuronide (compound 1; Burnett et al., Bioorganic and Medicinal Chemistry Letters 12:315-318 (2002)), was identified as a viable option for detection of mouse NPC1L1 binding. Compound 2 contains a methyl ester substitution for the carboxylic acid on the glucuronide portion of the molecule (compound structures shown in FIG. 4A).

[8] = target: T2, human NPC1L1; assay: Radioligand binding of [3H]-glucuronidated ezetimibe (compound 4) to cell membranes
Protocol: (§3) Cell Culture and Membrane Preparation. […] Cells were maintained in DMEM supplemented with 10% FBS, 100 U/ml pen/strep, and 500 μg/ml geneticin at 37° C., 5% CO2. All cell culture reagents were obtained from Invitrogen Life Technologies, (Carlsbad, Calif.). Cell membranes were prepared by lysing cells in 5 mM HEPES with protease inhibitors (Complete™ Protease Inhibitor Cocktail Tablets; Roche Diagnostics Corp., Indianapolis Ind.) for 15 min at 4° C. A membrane pellet was obtained by centrifuging the cell lysates at 12,000×g for 25 min. […] Radioligand. […] Natl. Acad. Sci. […] Reactions were performed in binding buffer (5 mM HEPES, 5.5 mM glucose, 117 mM NaCl and 5.4 mM KCl, pH 7.4). Cell membranes (50 μg in 20 μl) were added to each well. […] Binding reactions were incubated for 2 hours at 37° C. Samples were transferred to Unifilter-96 GF/C plates (Perkin Elmer, Wellesley Mass.) and filtered using a Brandel harvester (Gaithersburg Md.). […] Liquid scintillant (50 μl; Microscint-20, Perkin Elmer, Wellesley Mass.) was added and the bound radioactivity was measured using a microplate scintillation counter.

[9] = target: T1, monkey NPC1L1; assay: as above; parameters: species or system rhesus monkey
Protocol: as §3

[10] = system: plasma and liver cholesterol; assay: Percent cholesterol lowering in plasma and liver; type: in vivo; settings: hamster
[11] = system: cholesterol; assay: In vivo cholesterol lowering activity
[12] = system: ^14C-cholesterol absorption; assay: Acute cholesterol absorption assay; type: in vivo; settings: intraduodenal
Protocol: Acute cholesterol absorption assay. ^14C-cholesterol absorption was determined acutely in rats using conditions previously described (Van Heek et al., J. Pharmacol. Exp. Ther. 283: 157-163 (1997)). Compounds were dissolved in rat bile and delivered (1.0 ml) intraduodenally by bolus injection via an intestinal catheter, followed by 1.0 ml saline rinse (0.9%). Following a 30 min incubation, a cholesterol emulsion containing 3 mg cholesterol and 2 μCi ^14C-cholesterol (3 ml) was delivered to each rat as a bolus via intestinal catheter, followed by 1 ml saline rinse. Animals were sacrificed 90 min later and ^14C-cholesterol levels in plasma, liver, intestinal contents, and intestinal wall were determined.

[13] = system: NPC1L1 orthologs of multiple species; assay: Binding to NPC1L1 orthologs of multiple species; settings: NPC1L1 orthologs of the species tested
Protocol: as §1, §2

Ki [1]: 370 nM | Ki [2]: 1280 nM | Ki [3]: 1200 nM | Ki [4]: 2.15 µM | Ki [5]: 1.9 µM | Ki [6]: 542 nM | Ki [7]: 7.7 µM
Structure (SMILES): O=C1[C@H](CC[C@H](O)c2ccc(F)cc2)[C@@H](c2ccc(O[C@@H]3O[C@H](CO)[C@@H](O[C@@H]4O[C@H](CO)[C@@H](O)[C@H](O)[C@H]4O)[C@H](O)[C@H]3O)cc2)N1c1ccc(F)cc1 [compound 5]
cholesterol lowering Liver [10]: 86% | cholesterol lowering Plasma [10]: 36% | in vivo cholesterol lowering activity [11]: exhibiting in vivo cholesterol lowering activity

Ki Monkey NPC1L1 [1]: In- active | Ki Dog NPC1L1 [2]: In- active | Ki Hamster NPC1L1 [3]: In- active | Ki Human NPC1L1 [4]: In- active | Ki Rabbit NPC1L1 [5]: In- active | Ki Rat NPC1L1 [6]: In- active | Ki Mouse NPC1L1 [7]: In- active | NPC1L1 binding activity [13]: total loss
Structure (SMILES): COc1ccc(N2C(=O)[C@H](CCCc3ccccc3)[C@H]2c2ccc(O[C@@H]3O[C@H](COCc4ccccc4)[C@@H](OCc4ccccc4)[C@H](OCc4ccccc4)[C@H]3OCc3ccccc3)cc2)cc1 [compound 8]
rat ED50, inhibition of cholesterol absorption [12]: In- active | in vivo cholesterol lowering activity [11]: no in vivo cholesterol lowering activity

Ki Monkey NPC1L1 [1]: In- active | Ki Dog NPC1L1 [2]: In- active | Ki Hamster NPC1L1 [3]: In- active | Ki Human NPC1L1 [4]: In- active | Ki Rabbit NPC1L1 [5]: In- active | Ki Rat NPC1L1 [6]: In- active | Ki Mouse NPC1L1 [7]: In- active | NPC1L1 binding activity [13]: total loss
Structure (SMILES): COc1ccc(N2C(=O)[C@H](CCCc3ccccc3)[C@H]2c2ccc(F)cc2)cc1 [compound 9]
rat ED50, inhibition of cholesterol absorption [12]: In- active | cholesterol lowering Liver [10]: In- active | cholesterol lowering Plasma [10]: In- active | in vivo cholesterol lowering activity [11]: no in vivo cholesterol lowering activity

More lines, now with the values behind:

Structure (SMILES): Cc1cc(C)n2c1C=C1C=CC(CCC(=O)NCC#Cc3ccc(N4C(=O)[C@H](CC[C@H](O)c5ccc(F)cc5)[C@H]4c4ccc(O[C@@H]5O[C@H](C(=O)O)[C@@H](O)[C@H](O)[C@H]5O)cc4)cc3)=[N+]1[B-]2(F)F [compound 1, BODIPY-labeled glucuronidated ezetimibe]
Kd ([1]; saturation binding, monkey NPC1L1, 4 h): 46 nM | Kd ([2]; saturation binding, canine NPC1L1, 4 h): 52 nM | Kd ([3]; saturation binding, hamster NPC1L1, 4 h): 49 nM | Kd ([4]; saturation binding, human NPC1L1, 4 h): 61 nM | Kd ([5]; saturation binding, rabbit NPC1L1, 4 h): 151 nM | Kd ([6]; saturation binding, rat NPC1L1, 4 h): 58 nM | Kd [7]: could not be detected | Ki [8]: 2500 nM | Ki [9]: 210 nM

Structure (SMILES): COC(=O)[C@H]1O[C@@H](Oc2ccc([C@@H]3[C@@H](CC[C@H](O)c4ccc(F)cc4)C(=O)N3c3ccc(C#CCNC(=O)CCC4=[N+]5C(=Cc6c(C)cc(C)n6[B-]5(F)F)C=C4)cc3)cc2)[C@H](O)[C@@H](O)[C@@H]1O [compound 2]
Kd ([7]; read-out: Kd): 118 nM | Ki [8]: 120 nM | Ki [9]: 70 nM | increase in affinity versus compound 1 ([9]; monkey NPC1L1, methyl ester for carboxylic acid): 3 fold

Structure (SMILES): O=C1[C@H](CC[C@H](O)c2ccc(F)cc2)[C@@H](c2ccc(O)cc2)N1c1ccc(I)cc1 [compound 6]
Ki [1]: 1600 nM | Ki [2]: 1430 nM | Ki [3]: 2340 nM | Ki [4]: 4.59 µM | Ki [5]: 5 µM | Ki [6]: 1460 nM | Ki [7]: 16.4 µM | cholesterol lowering Liver [10]: 63% | cholesterol lowering Plasma [10]: 22% | in vivo cholesterol lowering activity [11]: exhibiting in vivo cholesterol lowering activity

Structure (SMILES): O=C(CS[C@H]1C(=O)N(c2ccc(F)cc2)[C@@H]1c1ccc(O)cc1)c1ccc(F)cc1 [compound 7]
Ki [2]: 2300 nM | Ki [3]: 4280 nM | Ki [5]: 5.6 µM | Ki [6]: 2100 nM | Ki [7]: 21.6 µM | ED50 ([12]; rat, read-out: rat ED50, inhibition of cholesterol absorption): 0.036 mg/kg | cholesterol lowering Liver [10]: 96% | cholesterol lowering Plasma [10]: 47% | NPC1L1 binding activity [13]: decreased | in vivo cholesterol lowering activity [11]: exhibiting in vivo cholesterol lowering activity

From patent US8212016B2, “NPC1L1 orthologues” (Schering Corporation, priority 2006, dated 2012)
